Test results reported in patent US9284333B2, “Fused pyrroledicarboxamides and their use as pharmaceuticals” (SANOFI, priority 2012, dated 2016).

The molecules below were run against Human TASK-1 channels (Homo sapiens (Human), UniProt O14649) (assay: Determination of the activity on the TASK-1 channel in Xenopus oocytes (two-microelectrode voltage clamp)). Conditions: compound concentration 5 μM.
Format: cell-based
Summary of the method: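 Current during 500 ms pulses to 40 mV from a −90 mV hold was recorded in oocytes expressing human TASK-1 for two days after cRNA injection. Compounds were added cumulatively to the ND96 bath (pH 7.4, room temperature). IC50 came from dose-response fitting of inhibition relative to pre-compound current.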

Chain of Human TASK-1 channels (O14649 whole entry): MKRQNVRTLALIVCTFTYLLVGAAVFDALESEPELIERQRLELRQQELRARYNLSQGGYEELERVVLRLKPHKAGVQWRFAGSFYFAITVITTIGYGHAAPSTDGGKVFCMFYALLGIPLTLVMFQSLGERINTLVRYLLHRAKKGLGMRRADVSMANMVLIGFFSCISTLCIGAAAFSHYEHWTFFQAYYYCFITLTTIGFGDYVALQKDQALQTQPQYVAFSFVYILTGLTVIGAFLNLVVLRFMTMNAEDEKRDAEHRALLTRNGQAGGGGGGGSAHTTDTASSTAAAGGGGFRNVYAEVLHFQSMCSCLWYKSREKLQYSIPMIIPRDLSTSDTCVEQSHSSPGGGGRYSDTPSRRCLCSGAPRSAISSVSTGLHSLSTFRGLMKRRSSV

SMILES | inhibition at 5 µM
CC[C@@H](NC(=O)c1cc(C(=O)N2CCC[C@@H]2C)n2c1COCC2)c1cncc(C(F)(F)F)c1 [16bk, 6-((S)-2-Methyl-pyrrolidine-1-carbonyl)-3,4-dihydro-1H-pyrrolo[2,1-c][1,4]oxazine-8-carboxylic acid [(R)-1-(5-trifluoromethyl-pyridin-3-yl)-propyl]-amide] | 53%
CC[C@@H](NC(=O)c1cc(C(=O)N2CCC[C@@H]2C)n2c1COCC2)c1cncc(Cl)c1 [16cj, 6-((S)-2-Methyl-pyrrolidine-1-carbonyl)-3,4-dihydro-1H-pyrrolo[2,1-c][1,4]oxazine-8-carboxylic acid [(R)-1-(5-chloro-pyridin-3-yl)-propyl]-amide] | 69%
CC[C@@H](NC(=O)c1cc(C(=O)N2CCC[C@@H]2C)c2n1CCOC2)c1ccc(C#N)cc1 [16nl, 8-((S)-2-Methyl-pyrrolidine-1-carbonyl)-3,4-dihydro-1H-pyrrolo[2,1-c][1,4]oxazine-6-carboxylic acid [(R)-1-(4-cyano-phenyl)-propyl]-amide] | 70%
CC[C@@H](NC(=O)c1cc(C(=O)N2CCC[C@H]2c2ccccc2)n2c1CCCC2)c1ccccc1 [16mn, 3-((S)-2-Phenyl-pyrrolidine-1-carbonyl)-5,6,7,8-tetrahydro-indolizine-1-carboxylic acid ((R)-1-phenyl-propyl)-amide] | 92%

Same assay, conditions: human TASK-1 expressed in Xenopus oocytes, room temperature; read-out: IC50 value for TASK-1 inhibition

SMILES | IC50
CC[C@@H](NC(=O)c1cc(C(=O)N[C@@H](C)c2ccc(F)cc2)n2c1COCC2)c1ncccn1 [16ef, 3,4-Dihydro-1H-pyrrolo[2,1-c][1,4]oxazine-6,8-dicarboxylic acid 6-{[(S)-1-(4-fluoro-phenyl)-ethyl]-amide} 8-[((R)-1-pyrimidin-2-yl-propyl)-amide]] | 820 nM
CC[C@@H](NC(=O)c1cc(C(=O)N2CCC[C@@H]2C)n2c1COCC2)c1ccc(F)cc1F [16v, 6-((S)-2-Methyl-pyrrolidine-1-carbonyl)-3,4-dihydro-1H-pyrrolo[2,1-c][1,4]oxazine-8-carboxylic acid [(R)-1-(2,4-difluoro-phenyl)-propyl]-amide] | 110 nM
CC[C@@H](NC(=O)c1cc(C(=O)N2CCC[C@@H]2C)n2c1COCC2)c1cccc(OC)n1 [16z, 6-((S)-2-Methyl-pyrrolidine-1-carbonyl)-3,4-dihydro-1H-pyrrolo[2,1-c][1,4]oxazine-8-carboxylic acid [(R)-1-(6-methoxy-pyridin-2-yl)-propyl]-amide] | 270 nM
CC[C@@H](NC(=O)c1cc(C(=O)N2CCN(CCC(F)(F)F)C[C@@H]2C)n2c1COCC2)c1ccccc1 [16ft, 6-[(S)-2-Methyl-4-(3,3,3-trifluoro-propyl)-piperazine-1-carbonyl]-3,4-dihydro-1H-pyrrolo[2,1-c][1,4]oxazine-8-carboxylic acid ((R)-1-phenyl-propyl)-amide] | 3600 nM
CC[C@@H](NC(=O)c1cc(C(=O)Nc2nc(C)c(C)s2)c2n1CCCC2)c1ccccc1 [16me, 5,6,7,8-Tetrahydro-indolizine-1,3-dicarboxylic acid 3-[((R)-1-phenyl-propyl)-amide] 1-[(4,5-dimethyl-thiazol-2-yl)-amide]] | 340 nM
CC[C@@H](NC(=O)c1cc(C(=O)N[C@H](C)c2cnccn2)n2c1COCC2)c1ccccc1Cl [16nq, 3,4-Dihydro-1H-pyrrolo[2,1-c][1,4]oxazine-6,7-dicarboxylic acid 8-{[(R)-1-(2-chloro-phenyl)-propyl]-amide} 6-[((R)-1-pyrazin-2-yl-ethyl)-amide]] | 480 nM
CC[C@@H](NC(=O)c1cc(C(=O)N2CCC(F)(F)CC2)n2c1CCCC2)c1ccccc1 [16mo, 3-(4,4-Difluoro-piperidine-1-carbonyl)-5,6,7,8-tetrahydro-indolizine-1-carboxylic acid ((R)-1-phenyl-propyl)-amide] | 1900 nM
CC[C@@H](NC(=O)c1cc(C(=O)N[C@H](CC)c2cccnc2C(F)(F)F)n2c1COCC2)c1ccccc1 [16hm, 3,4-Dihydro-1H-pyrrolo[2,1-c][1,4]oxazine-6,8-dicarboxylic acid 8-[((R)-1-phenyl-propyl)-amide] 6-{[(R)-1-(2-trifluoromethyl-pyridin-3-yl)-propyl]-amide}] | 660 nM
CC[C@@H](NC(=O)c1cc(C(=O)NC(C2CC2)C2CC2)n2c1COCC2)c1ccccc1 [16hb, 3,4-Dihydro-1H-pyrrolo[2,1-c][1,4]oxazine-6,8-dicarboxylic acid 6-dicyclopropylmethyl-amide 8-[((R)-1-phenyl-propyl)-amide]] | 13 nM
CC[C@@H](NC(=O)c1cc(C(=O)NCc2ccc(CC(=O)OC)cc2)n2c1COCC2)c1ccccc1 [16is, [4-({[8-((R)-1-Phenyl-propylcarbamoyl)-3,4-dihydro-1H-pyrrolo[2,1-c][1,4]oxazine-6-carbonyl]-amino}-methyl)-phenyl]-acetic acid methyl ester] | 1700 nM
CC[C@@H](NC(=O)c1cc(C(=O)N2CCC[C@@H]2C#N)n2c1COCC2)c1ccccc1 [16fm, 6-((R)-2-Cyano-pyrrolidine-1-carbonyl)-3,4-dihydro-1H-pyrrolo[2,1-c][1,4]oxazine-8-carboxylic acid ((R)-1-phenyl-propyl)-amide] | 210 nM
CC[C@@H](NC(=O)c1cc(C(=O)NCc2cccc(S(C)(=O)=O)c2)n2c1COCC2)c1ccccc1 [16gv, 3,4-Dihydro-1H-pyrrolo[2,1-c][1,4]oxazine-6,8-dicarboxylic acid 6-(3-methanesulfonyl-benzylamide) 8-[((R)-1-phenyl-propyl)-amide]] | 1310 nM
CC[C@H](NC(=O)c1cc(C(=O)N[C@H](CC)c2ccccc2)c2n1CCOC2)c1cnc(OC)cn1 [16hz, 3,4-Dihydro-1H-pyrrolo[2,1-c][1,4]oxazine-6,8-dicarboxylic acid 6-{[(S)-1-(5-methoxy-pyrazin-2-yl)-propyl]-amide} 8-[((R)-1-phenyl-propyl)-amide]] | 130 nM
CC[C@@H](NC(=O)c1cc(C(=O)NCc2ccc(F)cc2F)c2n1CCOC2)c1cccc(OC)n1 [16nt, 3,4-Dihydro-1H-pyrrolo[2,1-c][1,4]oxazine-6,8-dicarboxylic acid 8-(2,4-difluoro-benzylamide) 6-{[(R)-1-(6-methoxy-pyridin-2-yl)-propyl]-amide}] | 670 nM
CC[C@@H](NC(=O)c1cc(C(=O)NCC2CCCCC2)n2c1CCCC2)c1ccccc1 [16mp, 5,6,7,8-Tetrahydro-indolizine-1,3-dicarboxylic acid 3-cyclohexylmethyl-amide 1-[((R)-1-phenyl-propyl)-amide]] | 93 nM
CC[C@@H](NC(=O)c1cc(C(=O)N2CCC[C@@H]2c2cnccn2)c2n1CCOC2)c1ccc(F)cc1F [16pj, 8-((R)-2-Pyrazin-2-yl-pyrrolidine-1-carbonyl)-3,4-dihydro-1H-pyrrolo[2,1-c][1,4]oxazine-6-carboxylic acid [(R)-1-(2,4-difluoro-phenyl)-propyl]-amide] | 1100 nM
CC[C@@H](NC(=O)c1cc(C(=O)N2CCC[C@@H]2C)n2c1COCC2)c1ccc(C#N)nc1 [16aa, 6-((S)-2-Methyl-pyrrolidine-1-carbonyl)-3,4-dihydro-1H-pyrrolo[2,1-c][1,4]oxazine-8-carboxylic acid [(R)-1-(6-cyano-pyridin-3-yl)-propyl]-amide] | 2400 nM
CC[C@@H](NC(=O)c1cc(C(=O)N[C@H](CC)c2ccccc2)n2c1SCC2)c1ccccc1 [16kv, 2,3-Dihydro-pyrrolo[2,1-b]thiazole-5,7-dicarboxylic acid bis-[((R)-1-phenyl-propyl)-amide]] | 320 nM
CC[C@@H](NC(=O)c1cc(C(=O)N[C@H](CC)c2ccccn2)n2c1COCC2)c1ccccc1 [16gr, 3,4-Dihydro-1H-pyrrolo[2,1-c][1,4]oxazine-6,8-dicarboxylic acid 8-[((R)-1-phenyl-propyl)-amide] 6-[((R)-1-pyridin-2-yl-propyl)-amide]] | 310 nM
C[C@@H](NC(=O)c1cc(C(=O)N[C@H](C)c2ccc(F)cc2)n2c1COCC2)c1ccc(F)cc1 [16dm, 3,4-Dihydro-1H-pyrrolo[2,1-c][1,4]oxazine-6,8-dicarboxylic acid bis-{[(R)-1-(4-fluoro-phenyl)-ethyl]-amide}] | 125 nM
CC[C@@H](NC(=O)c1cc(C(=O)N2CCC[C@@H]2C)n2c1COCC2)c1ccc(OC)cc1 [16at, 6-((S)-2-Methyl-pyrrolidine-1-carbonyl)-3,4-dihydro-1H-pyrrolo[2,1-c][1,4]oxazine-8-carboxylic acid [(R)-1-(4-methoxy-phenyl)-propyl]-amide] | 400 nM
CC[C@@H](NC(=O)c1cc(C(=O)N2CCN(c3ccccn3)C[C@@H]2C)n2c1COCC2)c1ccccc1 [16fs, 6-((S)-2-Methyl-4-pyridin-2-yl-piperazine-1-carbonyl)-3,4-dihydro-1H-pyrrolo[2,1-c][1,4]oxazine-8-carboxylic acid ((R)-1-phenyl-propyl)-amide] | 670 nM
CC[C@@H](NC(=O)c1cc(C(=O)Nc2ccc(F)cn2)n2c1COCC2)c1ccccc1 [16hc, 3,4-Dihydro-1H-pyrrolo[2,1-c][1,4]oxazine-6,8-dicarboxylic acid 6-[(5-fluoro-pyridin-2-yl)-amide] 8-[((R)-1-phenyl-propyl)-amide]] | 180 nM
CC[C@@H](NC(=O)c1cc(C(=O)N2CCC[C@@H]2C)n2c1COC(C)(C)C2)c1ccc(C(F)(F)F)nc1 [16pi, 3,3-Dimethyl-6-((S)-2-methyl-pyrrolidine-1-carbonyl)-3,4-dihydro-1H-pyrrolo[2,1-c][1,4]oxazine-8-carboxylic acid [(R)-1-(6-trifluoromethyl-pyridin-3-yl)-propyl]-amide] | 850 nM
CC[C@H](NC(=O)c1cc(C(=O)N2CCC[C@@H]2C)n2c1COCC2)c1cnc(C(F)(F)F)cc1C(F)(F)F [16bx, 6-((S)-2-Methyl-pyrrolidine-1-carbonyl)-3,4-dihydro-1H-pyrrolo[2,1-c][1,4]oxazine-8-carboxylic acid [(S)-1-(4,6-bis-trifluoromethyl-pyridin-3-yl)-propyl]-amide] | 480 nM
